From US4959368A, “Therapeutic agent for neurological diseases” (Mitsui Petrochemical Industries Ltd., priority 1986, dated 1990)

Experiments:
[1] = test system: mouse neuroblastoma cell line neuro-2a; experiment: Activity on neuro-2a, cells with outgrown neurites; type: cell-based
How it was run: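 Mouse neuro-2a cells in DMEM with FCS exposed to compounds for 24 h (up to 6 concentrations, triplicate runs), glutaraldehyde-fixed and methylene blue-stained. Proportion of cells bearing a neurite at least twice the cell's long diameter counted microscopically over ≥200 cells.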

[2] = test system: rats with crushed sciatic nerves; experiment: Curative effect on rats with crushed sciatic nerves; type: in vivo, rat (male Wistar); conditions: for Rate of recovery in muscle weight: soleus muscle, saline 51.8 ± 1.2
Protocol: Curative effect on rats with crushed sciatic nerves:
The curing effect of the compound (I) of the invention was tested on rats having crushed scietic nerves as a model of peripheral nervous disorder using (1) a change in the action of the hind paw with the crushed sciatic nerves and (2) a change in the weight of the muscle as an index of the course of degeneration and regeneartion of peripheral nerves.
In the experiment, male Wistar rats (6 weeks old), seven per group, were used. The sciatic nerves were crushed by a method similar to the method of Yamatsu et al. (see Kiyomi Yamatsu, Takenori Kaneko, Akifumi Kitahara and Isao Ohkawa, Journal of Japanese Pharmacological Society, 72, 259-268 (1976) and the method of Hasegawa et al. (see Kazuo Hasegawa, Naoji Mikuni and Yutaka Sakai, Journal of Japanese Pharmacological Society, 74, 721-734 (1978). Specifically, under anesthesia with pentobarbital (40 mg/kg, i.p.), the left side sciatic nerve was exposed at the femur and that site of the exposed scietic nerve which was 5 mm to the center from the branched part between the N. tibialis and the N. suralis was crushed using a modified artery, klomme, having a width of 2 mm and a gap of 0.1 mm. After the operation, the rats were assigned to the test groups at random.
Compound No. 408 was selected as the compound (I) of the invention and intraperitoneally administered to the rats once a day from the day of operation to the 22nd day. A group to which mecobalamin (made by Gedeon Richter Ltd.) was administered and a group to which 0.9% saline was administered were used as controls. The following items were measured with the lapse of time (on the 1st, 4th, 7th, 10th, 14th, 17th, 21st, and 23rd days after the crushing of the scietic nerves).
(1) Change in the action of the side of the hind paw with the crushed scietic nerve:
By a method similar to the method of Hasegawa [Hasegawa, K., Experientia, 34, 750-751 (1978)], the distance between the first and fifth digits of the hind paw was measured.
The ratio of the measured distance to the normal distance was calculated and expressed in percentage (%).
(2) Change in the weight of muscle
It is known that removal of a nerve or its disorder causes atrophy of the muscle which is under its control, and the atrophy is gradually cured by re-control by the nerve. For this reason, a change in the weight of the muscle, which is quantitative, was selected as an index. Twenty-three days after the operation, the soleus muscles of both sides of paws were extracted under anesthesia with pentobarbital, and their weights were measured. The ratio of the weight of the soleus muscle on the crushed side to that of normal side was calculated and expressed in percentage (%).

[3] = test system: human neuroblastoma cell line GOTO; experiment: Activity on cell line GOTO (simple method); type: cell-based; conditions: Table 2 GOTO Run No. 1; 10 μg/ml; control 8.4
Protocol: The biological activities in vitro of the compounds of formula (I) on cells of the nervous system were tested. The cells tested were human neuroblastoma cell line GOTO [see Sekiguchi, M., Oota, T., Sakakibara, K., Inui, N. & Fujii, G., Japan. J. Exp. Med., 49, 67-83 (1979)], and neuroblastoma cell line NB-1 [see Miyake, S., Shimo, Y., Kitamura, T., Nojyo, Y., Nakamura, T., Imkashuku, S. and Abe, T., The Autonomic Nervous System, 10, 115-120 (1973)], and mouse neuroblastoma cell line neuro-2a (Dainippon Pharmaceutical Co., Ltd.) which have been established as the cells of the nervous system. The above neuve cells were grown in an incubator at 37° C. in the presence of 5% carbon dioxide gas exponentially, and then cultivated for a certain period of time together with the compounds of formula (I).
A culture medium [composed of 45% of RPMI 1640 medium, 45% modified Eagle's medium (MEM) and 10% of fetal calf serum (FCS) and containing penicillin G sodium (100 units/ml) and streptomycin sulfate (100 microgram/ml)] containing neurobalstoma cell line GOTO in the logarithmic growth period was poured in an amount of 2 ml each into polystyrene dishes (35 mm; made by Corning Co.) so that the cell concentration was 2 to 6×10^4 cells per dish, and the cells were cultured for 1 to 2 days in a carbon dioxide gas incubator containing 5% of carbon dioxide gas in air at 37° C. Then, the culture fluid was removed, and 2 ml of a fresh serum-free culture fluid (consisting of 50% of RPMI medium and 50% of MEM medium and containing penicillin G sodium and streptomycin sulfate in the same amounts as above) was added. At the same time, a presterilized PBS solution (phosphate buffered saline) of each of the test compounds in various concentrations was added to each of the dishes. After culturing for 24 hours, the number of living cells was counted. Furthermore, the culture was photographed, and from the photos, the number and length of neurites per cell were measured. The numer of living cells was counted for 3 to 6 dishes by resistance to staining with erythrosine dye. The number and length of the neurites were measured with regard to 6 photos (more than 200 cells per photo).
As a simple method of evaluation, the number of cells have neurites with a length equal to, or larger than, the long diameter of the cell was divided by the total number of cells.

CN1C(=O)Cc2cnc(N3CCNCC3)nc21 [Compound 408]
Cells having neurites with a length at least twice the long diameter of cell/total number of cells ([1]; Table 3 Run No. 3, 0.01 mM, control 3.9 ± 0.3): 7.9 ± 1.8%
Cells having neurites with a length at least twice the long diameter of cell/total number of cells ([1]; Table 3 Run No. 3, 0.03 mM, control 3.9 ± 0.3): 13.0 ± 1.2%
Cells having neurites with a length at least twice the long diameter of cell/total number of cells ([1]; Table 3 Run No. 3, 0.05 mM, control 3.9 ± 0.3): 23.0 ± 1.7%
Cells having neurites with a length at least twice the long diameter of cell/total number of cells ([1]; Table 3 Run No. 3, 0.1 mM, control 3.9 ± 0.3): 51.2 ± 1.5%
Cells having neurites with a length at least twice the long diameter of cell/total number of cells ([1]; Table 3 Run No. 4, 0.05 mM, control 3.1 ± 0.2): 16.8 ± 2.7%
Cells having neurites with a length at least twice the long diameter of cell/total number of cells ([1]; Table 3 Run No. 4, 0.1 mM, control 3.1 ± 0.2): 33.5 ± 2.7%
Cells having neurites with a length at least twice the long diameter of cell/total number of cells ([1]; Table 3 Run No. 4, 0.2 mM, control 3.1 ± 0.2): 44.6 ± 3.1%
Cells having neurites with a length at least twice the long diameter of cell/total number of cells ([1]; Table 3 Run No. 7, 0.01 mM, control 2.5 ± 0.7): 6.2 ± 0.9%
Cells having neurites with a length at least twice the long diameter of cell/total number of cells ([1]; Table 3 Run No. 7, 0.1 mM, control 2.5 ± 0.7): 25.0 ± 2.7%
Cells having neurites with a length at least twice the long diameter of cell/total number of cells ([1]; Table 3 Run No. 7, 0.2 mM, control 2.5 ± 0.7): 44.5 ± 2.9%
Cells having neurites with a length at least twice the long diameter of cell/total number of cells ([1]; Table 3 first Run No. 5, 0.05 mM, no control given): 12.8 ± 1.8%
Cells having neurites with a length at least twice the long diameter of cell/total number of cells ([1]; Table 3 first Run No. 5, 0.1 mM, no control given): 23.5 ± 2.5%
Rate of recovery of the interdigit distance ([2]; 21st day, 3 mg/kg ip once a day, saline 62.0 ± 2.4): 70.9 ± 3.5%
Rate of recovery of the interdigit distance ([2]; 21st day, 10 mg/kg ip once a day, saline 62.0 ± 2.4, *P < 0.05): 74.9 ± 3.1%
Rate of recovery of the interdigit distance ([2]; 21st day, 30 mg/kg ip once a day, saline 62.0 ± 2.4, ***P < 0.001): 79.6 ± 2.9%
Rate of recovery of the interdigit distance ([2]; 21st day, 100 mg/kg ip once a day, saline 62.0 ± 2.4): 68.9 ± 4.3%
Rate of recovery of the interdigit distance ([2]; 23rd day, 3 mg/kg ip once a day, saline 71.1 ± 3.4): 80.1 ± 3.6%
Rate of recovery of the interdigit distance ([2]; 23rd day, 10 mg/kg ip once a day, saline 71.1 ± 3.4, *P < 0.05): 82.3 ± 2.7%
Rate of recovery of the interdigit distance ([2]; 23rd day, 30 mg/kg ip once a day, saline 71.1 ± 3.4, *P < 0.05): 85.4 ± 4.1%
Rate of recovery of the interdigit distance ([2]; 23rd day, 100 mg/kg ip once a day, saline 71.1 ± 3.4): 77.3 ± 6.0%
Rate of recovery in muscle weight ([2]; 23rd day, 3 mg/kg ip, *P < 0.05): 58.0 ± 2.0%
Rate of recovery in muscle weight ([2]; 23rd day, 10 mg/kg ip, *P < 0.05): 59.4 ± 2.2%
Rate of recovery in muscle weight ([2]; 23rd day, 30 mg/kg ip, *P < 0.05): 59.3 ± 2.7%
Rate of recovery in muscle weight ([2]; 23rd day, 100 mg/kg ip, *P < 0.05): 63.9 ± 3.5%
Average of the proportions [3]: 25.33%

CN1Cc2nc(N3CCNCC3)ncc2C1=O [Compound 604]
Cells having neurites with a length at least twice the long diameter of cell/total number of cells ([1]; Table 3 Run No. 3, 0.3 mM, control 3.9 ± 0.3): 8.6 ± 0.9%
Cells having neurites with a length at least twice the long diameter of cell/total number of cells ([1]; Table 3 Run No. 3, 1 mM, control 3.9 ± 0.3): 10.7 ± 1.3%
Average of the proportions [3]: 21.30%
